Laboratory results reported in ChEMBL document CHEMBL6078630, “Design, synthesis, and bioactivity investigation of novel cyclic lipopeptide antibiotics targeting top-priority multidrug-resistant gram-negative bacteria” (Eur J Med Chem, 2024).
In brackets after ≈: the same amount, converted by molar mass. Activity calls are given as the source filed them. The rule behind the calls is not given here. Bridge positions count the residues as written; N and C are the ends. Square brackets hold non-standard residues; d marks the D form. Peptide text beside a SMILES is read from it. * marks the point of attachment. Heptanoyl(6-Me) = CC(C)CCCCC(=O)*; Dab = NCC[C@H](N)C(=O)O; Dap = NC[C@H](N)C(=O)O

Legend:
Escherichia coli [1] = assay: Antibacterial activity against carbapenem-resistant Escherichia coli ATCC BAA-2340 assessed as inhibition of bacterial growth incubated for 16 to 20 hrs by CLSI protocol based broth microdilution method; type: functional; settings: time 16-20 hrs
Pseudomonas aeruginosa [2] = assay: Antibacterial activity against carbapenem-resistant Pseudomonas aeruginosa clinical isolate 19-3 assessed as inhibition of bacterial growth incubated for 16 to 20 hrs by CLSI protocol based broth microdilution method; type: functional; settings: time 16-20 hrs
Pseudomonas aeruginosa [3] = assay: Antibacterial activity against Pseudomonas aeruginosa ATCC 27853 assessed as inhibition of bacterial growth incubated for 16 to 20 hrs by CLSI protocol based broth microdilution method; type: functional; settings: time 16-20 hrs
Acinetobacter baumannii [4] = assay: Antibacterial activity against carbapenem-sensitive Acinetobacter baumannii clinical isolate 19-1 assessed as inhibition of bacterial growth incubated for 16 to 20 hrs by CLSI protocol based broth microdilution method; type: functional; settings: time 16-20 hrs
Klebsiella pneumoniae [5] = assay: Antibacterial activity against carbapenem-resistant Klebsiella pneumoniae clinical isolate ets40 assessed as inhibition of bacterial growth incubated for 24 hrs by CLSI protocol based broth microdilution method; type: functional
Klebsiella pneumoniae [6] = assay: Antibacterial activity against carbapenem-resistant Klebsiella pneumoniae clinical isolate ets45 assessed as inhibition of bacterial growth incubated for 24 hrs by CLSI protocol based broth microdilution method; type: functional
Klebsiella pneumoniae [7] = assay: Antibacterial activity against carbapenem-resistant Klebsiella pneumoniae clinical isolate ets75 assessed as inhibition of bacterial growth incubated for 24 hrs by CLSI protocol based broth microdilution method; type: functional
Klebsiella pneumoniae [8] = assay: Antibacterial activity against carbapenem-resistant Klebsiella pneumoniae clinical isolate ets78 assessed as inhibition of bacterial growth incubated for 24 hrs by CLSI protocol based broth microdilution method; type: functional
Pseudomonas aeruginosa [9] = assay: Antibacterial activity against carbapenem-resistant Pseudomonas aeruginosa clinical isolate ets5 assessed as inhibition of bacterial growth incubated for 24 hrs by CLSI protocol based broth microdilution method; type: functional
Pseudomonas aeruginosa [10] = assay: Antibacterial activity against carbapenem-resistant Pseudomonas aeruginosa clinical isolate ets15 assessed as inhibition of bacterial growth incubated for 24 hrs by CLSI protocol based broth microdilution method; type: functional
Pseudomonas aeruginosa [11] = assay: Antibacterial activity against carbapenem-resistant Pseudomonas aeruginosa clinical isolate ets33 assessed as inhibition of bacterial growth incubated for 24 hrs by CLSI protocol based broth microdilution method; type: functional
Pseudomonas aeruginosa [12] = assay: Antibacterial activity against carbapenem-resistant Pseudomonas aeruginosa clinical isolate ets38 assessed as inhibition of bacterial growth incubated for 24 hrs by CLSI protocol based broth microdilution method; type: functional
Pseudomonas aeruginosa [13] = assay: Antibacterial activity against carbapenem-resistant Pseudomonas aeruginosa clinical isolate ets84 assessed as inhibition of bacterial growth incubated for 24 hrs by CLSI protocol based broth microdilution method; type: functional
Pseudomonas aeruginosa [14] = assay: Antibacterial activity against carbapenem-resistant Pseudomonas aeruginosa clinical isolate ets85 assessed as inhibition of bacterial growth incubated for 24 hrs by CLSI protocol based broth microdilution method; type: functional
Pseudomonas aeruginosa [15] = assay: Antibacterial activity against carbapenem-resistant Pseudomonas aeruginosa clinical isolate ets104 assessed as inhibition of bacterial growth incubated for 24 hrs by CLSI protocol based broth microdilution method; type: functional
Acinetobacter baumannii [16] = assay: Antibacterial activity against carbapenem-resistant Acinetobacter baumannii clinical isolate ets104 assessed as inhibition of bacterial growth incubated for 24 hrs by CLSI protocol based broth microdilution method; type: functional
Pseudomonas aeruginosa [17] = assay: Antibacterial activity against Pseudomonas aeruginosa ATCC 27853 assessed as decrease in bacterial concentration at 0.5 to 2 times of MIC measured after 1 hrs by time-kill kinetics assay; type: functional, organism-based
Pseudomonas aeruginosa [18] = assay: Antibacterial activity against Pseudomonas aeruginosa ATCC 27853 assessed as bacterial concentration at 4 to 8 times of MIC measured after 1 hrs by time-kill kinetics assay; type: functional, organism-based
[19] = Toxicity in ICR mouse assessed as adverse effect at 15.4 mg/kg, iv administered as single dose; type: organism-based; settings: in vivo
[20] = Half-life in male Sprague-Dawley rat at 3 mg/kg, iv measured after 24 hrs by LC-MS/MS analysis; type: ADME, organism-based; settings: in vivo
[21] = Volume of distribution in male Sprague-Dawley rat at 3 mg/kg, iv measured after 24 hrs by LC-MS/MS analysis; type: ADME, organism-based; settings: in vivo
[22] = MRT in male Sprague-Dawley rat at 3 mg/kg, iv measured after 24 hrs by LC-MS/MS analysis; type: ADME, organism-based; settings: in vivo
[23] = Protein binding in human plasma assessed as unbound fraction at 0.2 uM incubated for 6 hrs by LC-MS/MS analysis; type: ADME, cell-free
Escherichia coli [24] = assay: Antibacterial activity against Escherichia coli ATCC BAA-2523 infected in ICR mouse model administered intravenously with compound at 1 and 6 hrs post-infection and measured after 7 days; type: functional; settings: ATCC BAA-2523, 168 h, route iv, time 7 day
Escherichia coli [25] = assay: Antibacterial activity against Escherichia coli ATCC BAA-2523 infected in ICR mouse model assessed as survival rate at 4 mg/kg, iv administered at 1 and 6 hrs post-infection and measured after 7 days relative to control; type: functional; settings: ATCC BAA-2523, 168 h, time 7 day
Klebsiella pneumoniae [26] = assay: Antibacterial activity against carbapenem-resistant Klebsiella pneumoniae ATCC BAA-1705 infected in ICR mouse model assessed as survival rate at 2 mg/kg, iv administered at 1 and 6 hrs post-infection and measured after 7 days relative to control; type: functional; settings: time 7 day
Acinetobacter baumannii [27] = assay: Antibacterial activity against carbapenem-resistant Acinetobacter baumannii NCTC13304 infected in ICR mouse model administered intravenously with compound at 1 and 6 hrs post-infection and measured after 7 days; type: functional; settings: NCTC13304, 168 h, route iv, time 7 day
Acinetobacter baumannii [28] = assay: Antibacterial activity against carbapenem-resistant Acinetobacter baumannii NCTC13304 infected in ICR mouse model assessed as survival rate at 3 mg/kg, iv administered at 1 and 6 hrs post-infection and measured after 7 days relative to control; type: functional; settings: NCTC13304, 168 h, time 7 day
Klebsiella pneumoniae [29] = assay: Antibacterial activity against carbapenem-resistant Klebsiella pneumoniae clinical isolate KPN+19-15 infected in ICR mouse model assessed as survival rate at 2 mg/kg, iv administered at 1 and 6 hrs post-infection and measured after 7 days relative to control; type: functional; settings: 168 h, time 7 day
Lipopolysaccharide (LPS) [30] = assay: Binding affinity to Escherichia coli LPS assessed as dissociation constant by SPR analysis
Lipopolysaccharide (LPS) [31] = assay: Binding affinity to Pseudomonas aeruginosa LPS assessed as dissociation constant by SPR analysis
Pseudomonas aeruginosa [32] = assay: Potentiation of rifampicin induced antibacterial activity against Pseudomonas aeruginosa ATCC 27853 assessed as rifampicin MIC at 0.004 microg/ml incubated 24 hrs by cation adjusted Mueller-Hinton broth based method; type: functional; settings: dose 0.004 µg/ml
Pseudomonas aeruginosa [33] = assay: Potentiation of rifampicin induced antibacterial activity against Pseudomonas aeruginosa ATCC 27853 assessed as rifampicin MIC at 0.016 microg/ml incubated 24 hrs by cation adjusted Mueller-Hinton broth based method; type: functional; settings: dose 0.016 µg/ml
Pseudomonas aeruginosa [34] = assay: Potentiation of rifampicin induced antibacterial activity against Pseudomonas aeruginosa ATCC 27853 assessed as rifampicin MIC at 0.125 microg/ml incubated 24 hrs by cation adjusted Mueller-Hinton broth based method; type: functional; settings: dose 0.125 µg/ml
Pseudomonas aeruginosa [35] = assay: Potentiation of rifampicin induced antibacterial activity against Pseudomonas aeruginosa ATCC 27853 assessed as rifampicin MIC at 0.25 microg/ml incubated 24 hrs by cation adjusted Mueller-Hinton broth based method; type: functional; settings: dose 0.25 µg/ml

## CC(C)CCCCC(=O)N[C@@H](CCN)C(=O)N[C@H](C(=O)N[C@@H](CN)C(=O)N[C@H]1CCNC(=O)[C@H]([C@@H](C)O)NC(=O)[C@H](CCN)NC(=O)[C@H](CCN)NC(=O)[C@H]([C@@H](C)O)NC(=O)[C@@H](Cc2ccccc2)NC(=O)[C@H](CCN)NC1=O)[C@@H](C)O ({Heptanoyl(6-Me)}-[Dab]T[Dap][Dab][Dab][dF]T[Dab][Dab]T; lactam 4-C)
Escherichia coli [1]
  MIC: ≤ 0.03 µg/mL
Pseudomonas aeruginosa [2]
  MIC: 0.125 µg/mL (≈ 0.107 µM)
Pseudomonas aeruginosa [3]
  MIC: 0.125 µg/mL (≈ 0.107 µM)
Acinetobacter baumannii [4]
  MIC: ≤ 0.03 µg/mL
Klebsiella pneumoniae [5]
  MIC: 0.25 µg/mL (≈ 0.215 µM)
Klebsiella pneumoniae [6]
  MIC: 0.25 µg/mL (≈ 0.215 µM)
Klebsiella pneumoniae [7]
  MIC: 0.5 µg/mL (≈ 0.43 µM)
Klebsiella pneumoniae [8]
  MIC: 0.5 µg/mL (≈ 0.43 µM)
Pseudomonas aeruginosa [9]
  MIC: 1 µg/mL (≈ 0.86 µM)
Pseudomonas aeruginosa [10]
  MIC: 0.5 µg/mL (≈ 0.43 µM)
Pseudomonas aeruginosa [11]
  MIC: 0.5 µg/mL (≈ 0.43 µM)
Pseudomonas aeruginosa [12]
  MIC: 1 µg/mL (≈ 0.86 µM)
Pseudomonas aeruginosa [13]
  MIC: 0.5 µg/mL (≈ 0.43 µM)
Pseudomonas aeruginosa [14]
  MIC: 0.5 µg/mL (≈ 0.43 µM)
Pseudomonas aeruginosa [15]
  MIC: 1 µg/mL (≈ 0.86 µM)
Acinetobacter baumannii [16]
  MIC: 0.06 µg/mL (≈ 0.0516 µM)
Pseudomonas aeruginosa [17]
  Activity: Active
Pseudomonas aeruginosa [18]
  Activity: Below limit of detection
[19]
  Activity: Non-toxic
[20]
  half-life: 2.22 h
[21]
  Vd: 0.78 L/kg
[22]
  MRT: 1.17 h
[23]
  fraction unbound at 6 h, 0.2 µM: 0.232
Escherichia coli [24]
  ED50: 1.86 mg/kg
Escherichia coli [25]
  survival at 4 mg/kg: 100%
Klebsiella pneumoniae [26]
  Activity: 100%
Acinetobacter baumannii [27]
  ED50: 0.83 mg/kg
Acinetobacter baumannii [28]
  survival at 3 mg/kg: 100%
Klebsiella pneumoniae [29]
  survival at 2 mg/kg: 100%
Lipopolysaccharide (LPS) [30]
  Kd: 0.03 µM
Lipopolysaccharide (LPS) [31]
  Kd: 11.5 µM
Pseudomonas aeruginosa [32]
  MIC: 32 µg/mL
Pseudomonas aeruginosa [33]
  MIC: 32 µg/mL
Pseudomonas aeruginosa [34]
  MIC: ≤ 0.06 µg/mL
Pseudomonas aeruginosa [35]
  MIC: ≤ 0.06 µg/mL
